Measured values reported in the NIST ThermoML archive (doi:10.1021/acs.jced.7b00520).

Assays:
[1] = mn = molality of the nth substance listed, in mol/kg; conditions: 101.3 kPa, Liquid; for viscosity: Capillary tube (Ostwald / Ubbelohde) method; for mass density: Vibrating tube method
[2] = 101.3 kPa, Liquid, Capillary tube (Ostwald / Ubbelohde) method

[Cl-].[Cl-].[Mg+2] [magnesium chloride] + O
[1]
Conditions	mass density, m1 = 0.09999 [kg/m3]	mass density, m1 = 0.25 [kg/m3]	mass density, m1 = 0.5 [kg/m3]	mass density, m1 = 0.7499 [kg/m3]	mass density, m1 = 0.9999 [kg/m3]	viscosity, m1 = 0.0999 [mPa·s]	viscosity, m1 = 0.25 [mPa·s]	viscosity, m1 = 0.5 [mPa·s]	viscosity, m1 = 0.7499 [mPa·s]	viscosity, m1 = 0.9999 [mPa·s]
288.15 K	1006.87	1017.79	1034.95	1050.84	1065.46	1.21	1.25	1.355	1.445	1.534
298.15 K	1004.61	1015.32	1032.22	1048.21	1062.64	0.934	0.981	1.072	1.147	1.214
308.15 K	1001.62	1012.53	1029.55	1045.26	1059.4	0.751	0.794	0.862	0.934	1.01
318.15 K	997.848	1008.92	1026.01	1041.4	1055.25	0.624	0.659	0.715	0.762	0.814

O [water]
[2]
Conditions	viscosity [mPa·s]
288.15 K	1.138
298.15 K	0.89
308.15 K	0.719
318.15 K	0.596
